Where “and” joins values, the source holds several entries; their conditions need not be identical. Equal entries are not always repeated. Entries after “also recorded” stand apart in the source; their conditions may differ.
Key:
[1] = Cytotoxicity, MTT method, huMDM; format: cell-based; settings: human, monocyte-derived macrophages (huMDM), read-out: LC50 median lethal concentration huMDM
Protocol: Cytotoxicity of UBMC-4 was tested in HepG2, CaCo2, and huMDM cell lines according to the effect on cell growth determined by the MTT microenzimatic method, as described by others. Briefly, 2.0 × 10^4 U-937 and huMDM or 2.5 × 10^4 HepG2 and CaCo2 cells were dispensed in 200 µL into each well of a 96-well tissue culture plate containing the corresponding culture medium. Then, 100 µL/well of each compound at a concentration of […] were added and plates were incubated at 37 °C, 5% CO2. After 72 h of incubation, 20 μL of MTT (Sigma-Aldrich, St Louis, MO, USA) were added to each well and plates were incubated for 3 h at 37 °C, 5% CO2. […] The concentration of formazan was determined at 570 nm in a spectrophotometer (Varioskan Flash Multimode Reader, Thermo Scientific, Waltham, MA, USA). […] Cytotoxicity was determined according to the percentages of viability and cell growth inhibition obtained for each compound, bz, doxorubicin, or medium alone. Non-specific absorbance was corrected by subtracting the OD of the blank (culture medium). Percentages of mortality were calculated using equation, as follows: % mortality = 100 − [(O.D. of treated cells)/(O.D. of non-treated cells)] × 100. The half maximal effective concentration (EC50) was calculated by the linear regression model Probit using Graphpad Prism software.

[2] = In vivo pharmacokinetic analysis of UBMC-4 in mice (HPLC plasma, two-compartment model); set-up: species or system Balb/c Mus musculus
Protocol: A total of 30 mice (15 males and 15 females) was randomly selected and divided into two groups: one group received a 200 µL oral single dose of UBMC-4 at a concentration of 60 mM (equivalent to a 200 mg/kg dose), and a control group receiving 200 µL of vehicle (Kolliphor and water without UBMC-4) via oral route. Considering that the average weight of the mice was 25 g, the total amount of UBMC-4 administered was 5 mg. The compound was only administered orally, it was not used intravenously since one of the primary objectives was to evaluate its gastrointestinal absorption. […] In this way, we wanted to find the highest potential plasma concentrations before inducing toxicity. Blood samples were collected in EDTA tubes via intracardiac puncture performed under general anesthesia in both groups at sampling time points as follows: 0 h, 1 h, 2 h, 3 h, 5 h, 6 h, 8 h, and 24 h. Samples were then centrifuged at 1800 rpm at 4 °C for 10 min to collect plasma. For each sampling time point, 100 µL of mouse plasma were collected and 200 µL of acetone were added. This mixture was vortexed for 30 s and centrifuged at 10,000 rpm at 4 °C for 20 min. Supernatants were poured into vials for HPLC analysis following the method described below.
The amount of UBMC-4 in plasma samples was quantified by a HPLC method using a Hitachi Chromaster HPLC System with a Knauer C18 Column as follows: λ: 300 nm; temperature: 40 °C; run time: 13 min at a flow rate of 1.0 mL/min. A gradient of acetonitrile:water:methanol in a 30:40:30 ratio was used as mobile phase from baseline to minute 6, a 20:0:80 ratio from minute 7 to minute 10, and again a 30:40:30 ratio from minute 11. Linearity of the method was calculated for the 0.5 µg/mL to 20 µg/mL concentration range, with a r^2 (correlation coefficient) of 0.969 for the relationship between the area under the curve and UBMC-4 absorption at 300 nm.
The ADAPT 5 software was used to determine the most suitable model for the UBMC-4 plasma concentration profile. The maximum likelihood estimation method was used for modeling. After conducting trials where various models were used, the best one was chosen based on the -Log-Likelihood (-LL) and Akaike information criterion (AIC) values. Consequently, by comparing models, the one producing lower values amongst these two parameters would be the one that best fit the plasma concentration data and the most useful for pharmacokinetic studies. Moreover, based on the R-square value (r^2), we assessed the correlation between the values predicted by the model and those observed in UBMC-4 plasma concentration. The selected model was therefore used to elaborate simulations using different administration regimens and thus predicting what would happen with UBMC-4 concentration levels upon administration of repeated dosage. This simulation was also performed using ADAPT 5 [36, 66, 67]

T. cruzi trypomastigotes = experiment: Morphological changes of trypomastigotes incubated with UBMC-4 (data not shown); format: cell-based, Trypanosoma cruzi; settings: 10 µM
[3] = two-compartment model, 200 mg/kg oral

With Oc1ccc(-c2nc(-c3ccc4sc5ccccc5c4c3)c(-c3ccccc3)[nH]2)cc1 [UBMC-4, 4-(4-dibenzo-[b,d]-thien-2-yl-5-phenyl-1H-imidazol-2-yl)phenol] as the compound, how does the CC50 at 72 h [1] read?
The CC50 at 72 h was greater than 40 µM.

And the “time of highest plasma concentration” value ([2]; 200 mg/kg oral single dose)?
The value was 3 h.

And the oral absorption ([2]; 200 mg/kg oral, Kolliphor RH40 formulation, 200 mg/kg)?
Its oral absorption is “well absorbed; also recorded: absorbed orally”.

And the concentration at 0 h ([2]; both sexes, Balb/c, mouse, plasma, 200 mg/kg oral single dose, 0 h)?
The concentration at 0 h was 0 ng/mL.

And the concentration at 1 h ([2]; both sexes, Balb/c, mouse, plasma, 200 mg/kg oral single dose, 1 h)?
Its concentration at 1 h is 2800 ng/mL and 6.69 µM.

What about the concentration at 2 h ([2]; both sexes, Balb/c, mouse, plasma, 200 mg/kg oral single dose, 2 h) of the same compound?
Its concentration at 2 h is 3200 ng/mL.

What about the concentration at 3 h ([2]; both sexes, Balb/c, mouse, plasma, 200 mg/kg oral single dose, 3 h) of the same compound?
The concentration at 3 h was 4200 ng/mL.

What about the concentration at 5 h ([2]; both sexes, Balb/c, mouse, plasma, 200 mg/kg oral single dose, 5 h) of the same compound?
The concentration at 5 h was 3800 ng/mL.

And the concentration at 6 h ([2]; both sexes, Balb/c, mouse, plasma, 200 mg/kg oral single dose, 6 h)?
The concentration at 6 h was 3700 ng/mL.

And the concentration at 8 h ([2]; both sexes, Balb/c, mouse, plasma, 200 mg/kg oral single dose, 8 h)?
Its concentration at 8 h is 3600 ng/mL.

What about the concentration at 24 h ([2]; both sexes, Balb/c, mouse, plasma, 200 mg/kg oral single dose, 24 h) of the same compound?
Its concentration at 24 h is 2400 ng/mL and 5.74 µM.

And the Cmax ([2]; both sexes, Balb/c, mouse, plasma, po, 200 mg/kg, 200 mg/kg oral single dose, read-out: highest plasma concentration (Cmax))?
The Cmax was 4200 ng/mL and 10 µM.

What about the half-life ([2]; both sexes, Balb/c, mouse, plasma, two-compartment model, 200 mg/kg oral, read-out: estimated half-life (t1/2) (converted)) of the same compound?
Its half-life is 22.4 h.

And the CLd/F intercompartmental clearance [2, 3]?
Its CLd/F intercompartmental clearance is 0.2514 L/h.

What about the CLt/F total clearance [2, 3] of the same compound?
Its CLt/F total clearance is 0.0357 L/h.

And the Ka absorption constant [2, 3]?
The Ka absorption constant was 0.6213 h⁻¹.

What about the Vc/F central volume [2, 3] of the same compound?
Its Vc/F central volume is 0.6930 L.

What about the Vp/F peripheral volume [2, 3] of the same compound?
Its Vp/F peripheral volume is 0.4360 L.

What about the “morphological changes of trypomastigotes” value (T. cruzi trypomastigotes) of the same compound?
The value was “much faster progressive morphological changes within the hour”.

Reference: paper PMC9229894, “In Silico, In Vitro, and Pharmacokinetic Studies of UBMC-4, a Potential Novel Compound for Treating against Trypanosoma cruzi” (Pathogens, 2022)
